Measurements from patent US8501953B2, “PKM2 modulators for use in the treatment of cancer” (Agios Pharmaceuticals, Inc, priority 2009, dated 2013).

Molecular target: PKM2 (Homo sapiens, UniProt P14618)
Assay: PKM2 Assay (activation; LDH-coupled, NADH absorbance at 340 nm)
Assay type: biochemical
Conditions: PKM2 50 ng/well, ADP 0.7 mM, PEP 0.15 mM, no FBP in Reaction Mix
Description: • PKM2 stock enzyme solution was diluted in Reaction Buffer • 2 μL of compound was added into each well first, and then 180 μL of the Reaction Mix was added. • Reaction mixture with compound (without ADP) were incubated for 30 minutes at 4° C. • Plates were re-equilibrated to room temperature prior to adding 20 μL ADP to initiate the reaction. • Reaction progress was measured as changes in absorbance at 340 nm wavelength at room temperature (25° C.) Reaction Mix: PKM2 (50 ng/well), ADP (0.7 mM), PEP (0.15 mM), NADH (180 μM), LDH (2 units) in Reaction Buffer Reaction Buffer: 100 mM KCl, 50 mM Tris pH 7.5, 5 mM MgCl2, 1 mM DTT, 0.03% BSA.

Chain of PKM2 (P14618 whole entry): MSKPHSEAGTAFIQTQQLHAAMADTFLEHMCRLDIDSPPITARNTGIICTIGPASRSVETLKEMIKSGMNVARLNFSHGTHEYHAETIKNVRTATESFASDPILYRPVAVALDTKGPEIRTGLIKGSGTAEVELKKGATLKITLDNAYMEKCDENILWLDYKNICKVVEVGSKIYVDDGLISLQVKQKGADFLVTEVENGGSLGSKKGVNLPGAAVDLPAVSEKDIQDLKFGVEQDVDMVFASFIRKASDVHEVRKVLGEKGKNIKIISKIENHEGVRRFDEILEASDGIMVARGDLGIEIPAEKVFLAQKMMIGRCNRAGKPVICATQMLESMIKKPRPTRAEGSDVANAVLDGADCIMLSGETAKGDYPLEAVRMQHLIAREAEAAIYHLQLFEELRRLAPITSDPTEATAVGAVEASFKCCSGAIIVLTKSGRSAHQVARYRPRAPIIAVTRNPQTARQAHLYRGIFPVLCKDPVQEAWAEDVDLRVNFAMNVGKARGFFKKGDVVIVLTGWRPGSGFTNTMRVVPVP

AC50 [nM]	SMILES
< 1000	Cn1c(=O)oc2cc(F)c(S(=O)(=O)Nc3ccccc3)cc21 [drawing 56]
1000 to 10000	Cn1c(=O)oc2cc(F)c(S(=O)(=O)Nc3ccccc3)cc21 [drawing 242]
